Key:
HS‐5 cells = experiment: MTT assay, HS‐5 cells; type: cell-based; settings: 72 h exposure, nonmalignant bone marrow stromal cells
Method: Carboplatin, a second‐generation platinum drug commonly used as part of standard first‐line chemotherapy for ovarian carcinoma, was examined as a reference compound due to its clinical relevance. Additionally, the nonmalignant bone marrow stromal cell line HS‐5 was included as a control to assess specificity of the complexes toward cancer cells.
The exponentially growing cells were seeded at a density of 8 × 10^3 cells/well (A2780wt/cis) or 1 × 10^4 cells/well (HS‐5), respectively, into clear flat‐bottom 96‐well plates in triplicates. Following 24 h of incubation for the adherence of the cells at 37°C in a humidified atmosphere (5% CO2/95% air), the test compounds were added. […] For the evaluation of the cell growth inhibition by the compounds loaded in BGs, the BG suspensions were directly diluted in RPMI 1640 to the desired testing concentration (25 µM). After another 72 h of incubation, the cellular metabolic activity was measured as an indicator of cell viability employing an MTT assay. Hereby, 20 µL of a 5 mg/mL MTT solution was added to each well, respectively. After 3 h of incubation, the medium was discarded, and the formazan crystals formed were dissolved in DMSO for 15 min with gentle shaking. Afterward, the optical density (OD) was measured at 595 and 620 nm, respectively on an EnSpire Multimode Plate Reader (revvity, Waltham, MA, USA). The OD at 620 nm was subtracted from the OD at 595 nm. The OD of the medium was subtracted to exclude the unspecific staining caused by FCS‐containing medium. Cells treated with vehicle control (0.1% DMF) only were set at 100% metabolic activity. The IC50 values were calculated with Prism 8.0 (GraphPad Software Inc., Boston, MA, USA) using nonlinear regression. Significance was evaluated via a one sample t‐test performed with Prism 8.0.

Water solubility = type: physicochemical
A2780wt cells [1] = experiment: Comet assay (intracellular DNA damage); type: cell-based; settings: 50 µM, 48 h incubation
Method: Given that platinum‐based drugs are known to commonly induce DNA damage, a comet assay was conducted using A2780wt cells. This assay detects DNA damage such as DNA single/double strand breaks and DNA fragmentation, a common feature of apoptosis. […] DMF (0.1%)‐treated cells were used as a negative control to establish baseline DNA integrity.
Cellular DNA damage can be visualized by employing a comet assay, which is a single cell gel electrophoresis assay. Hereby, A2780wt cells were seeded at a density of 2 × 10^6 into 25 cm^2 flasks. After letting the cells adhere for 24 h in a humidified atmosphere, the cell culture medium was exchanged for medium containing the respective compound. The cells were then incubated for 48 h with the platinum complexes or 4 h with etoposide, respectively. After incubation, the cell growth was stopped by removing the compound‐containing medium, washing the cells with phosphate‐buffered saline (PBS) and detaching them with a rubber policeman. The detached cells were then centrifuged at 700g for 2 min and the resulting pellet was then washed with 5 mL of PBS. After that, the cells were adjusted to a concentration of 1 × 10^6 cells/mL and were resuspended in ice cold PBS. A total of 75 µL of liquified agarose per condition was transferred onto the slide to create a base layer. This base layer was solidified by transferring the slide to 4°C for 15 min. Afterwards, 10 µL of the above‐mentioned cell suspension in PBS were mixed with 90 µL of agarose. A total of 75 µL of this was added to each base layer, respectively. This layer was also allowed to solidify at 4°C for 15 min. The slide was then transferred to a small basin which contained pre‐chilled lysis buffer (14.6 g NaCl, 20 mL EDTA solution, 10 mL lysis solution, 10 mL DMSO, 60 mL deionized H2O), where it remained for 45 min in the dark at 4°C. The lysis buffer was then aspirated and exchanged with a pre‐chilled alkaline solution (1.2 g NaOH, 0.2 mL EDTA solution, 100 mL deionized H2O), where it remained for further 30 min in the dark at 4°C. The slide was then transferred to a horizontal electrophoresis chamber which was filled with cold alkaline solution. The electrophoresis conditions were set to 1.5 V/cm and 300 mA for 20 min. After the electrophoresis, the slide was transferred into a small basin containing pre‐chilled, deionized H2O. After 2 min, the water was aspirated and this washing step was repeated twice more. After the final rinse, the slide was submerged in 70% ethanol for 5 min. Once the slide has dried, 100 µL of diluted Vista Green DNA Dye was added to each well. After 15 min of incubation, the slides were analyzed on an IX‐70 epifluorescence microscope (Olympus, Shinjuku, Japan) using a FITC filter.

A2780wt cells [2] = experiment: Annexin V/PI staining and FACS analysis, A2780wt; type: cell-based; settings: w/o BGs, 25 µM, 24 h; for late apoptosis/ necrosis: Annexin V positive/PI positive; for early apoptosis: percentage of cells (Annexin V positive/PI negative)
Method: Therefore, we aimed to evaluate the apoptosis and necrosis inducing potential of complexes 1–4 via a fluorescent‐activated cell sorting (FACS) analysis with Annexin V/propidium iodide (PI) staining in A2780wt and A2780cis cells. Cells were treated for 24 h with both the free and BG‐loaded forms of each compound at 25 µM. Carboplatin (50 µM) served as a reference.
To evaluate the mode of cell death, a FACS measurement after staining with Annexin V and PI was conducted. First, 0.3 × 10^6 A2780wt or A2780cis cells were seeded into 12‐well plates and were allowed to adhere for 24 h. The compounds were added at 25 µM, either diluted from a freshly prepared DMF stock solution (0.1% DMF) or freshly thawed when loaded in BGs. After 24 h of incubation, the cells were harvested with accutase and washed with PBS. The cells were then resuspended in 200 µL of PBS each and 1 µL of PI solution (Sigma‐Aldrich, Taufkirchen, Germany) and 1 µL of Annexin V‐FITC (MabTag GmbH, Friesoythe, Germany) were added to each sample. These were then incubated for 20 min at rt under light‐protected conditions and afterward transferred onto ice. The percentage of apoptotic cells was determined by analyzing Annexin V positive /PI negative cells using a BD LSRFortessa flow cytometer and BD FACSDiva software (both BD Biosciences, San Jose, CA, USA). The apoptosis analysis included the evaluation of early apoptosis (Annexin V positive/PI negative) and late apoptosis/necrosis (Annexin V positive /PI positive).

Molecule | IC50 (HS‐5 cells) [µM] | water solubility (Water solubility) | intracellular DNA damage (comet formation) (A2780wt cells [1]) | late apoptosis/ necrosis (A2780wt cells [2]) | early apoptosis (A2780wt cells [2])
CCN1[C]([Pt]([O]C(C)=O)([O]C(C)=O)[SH](C)(C)=O)N(CC)c2ccccc21 [Compound 1, (SP‐4‐2)‐Diacetato(1,3‐diethylbenzimidazol‐2‐ylidene)(dimethylsulfoxide)platinum(II)] | 64.3 ± 8.2 | approximately 10 mg/mL | induced intracellular DNA damage | 29.1 ± 2.56 | 15.9 ± 1.55
CCN1[C]([Pt]([O]C(=O)C(Cl)Cl)([O]C(=O)C(Cl)Cl)[SH](C)(C)=O)N(CC)c2ccccc21 [Compound 3, (SP‐4‐2)‐Bis(dichloroacetato)(1,3‐diethylbenzimidazol‐2‐ylidene)(dimethylsulfoxide)platinum(II)] | > 100 | < 500 µg/mL | induced intracellular DNA damage | 28.8 ± 2.50 | 15.3 ± 1.17
(SP‐4‐2)‐Bis(dichloroacetato)bis(1,3‐diethylbenzimidazol‐2‐ylidene)platinum(II) [Compound 4] | 37 ± 1.36 | < 500 µg/mL | induced intracellular DNA damage | 46.9 ± 3.01 | 13.2 ± 0.22
(SP‐4‐2)‐Diacetatobis(1,3‐diethylbenzimidazol‐2‐ylidene)platinum(II) [Compound 2] | > 50 | around 3 mg/mL | did not show any evidence of comet formation | 25.9 ± 5.70 | 9.37 ± 0.31
